Data from ChEMBL document CHEMBL1201862, “PubChem BioAssay data set” (2004).
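Each compound was tested at five concentrations against cells in 96-well plates for 48 hours. GI50 = concentration required for 50% inhibition of growth.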 The source made the active and inactive calls. Cut-off read from the data, not from the text of the source: active = GI50 up to about 1.1 µM and inactive = higher.

What was measured:
Assay in all cases: NCI tumour cell line growth inhibition, 48 h
[1] = system: MDA-MB-435
[2] = system: NCI-H522
[3] = system: CAKI-1
[4] = system: HOP-62
[5] = system: HCT-15
[6] = system: SN12C
[7] = system: UACC-62
[8] = system: SK-OV-3
[9] = system: A549
[10] = system: LOX IMVI
[11] = system: SF-295
[12] = system: Hs-578T
[13] = system: SR
[14] = system: 786-0
[15] = system: OVCAR-8
[16] = system: HCT-116
[17] = system: A498
[18] = system: CCRF-CEM
[19] = system: U-251
[20] = system: OVCAR-3

O=C(O)c1ccccc1NCn1c(=S)sc2ccccc21
GI50 [1]: 83 µM (inactive) | GI50 [2]: 27 µM (inactive) | GI50 [3]: > 100 µM (inactive) | GI50 [4]: 45.1 µM (inactive) | GI50 [5]: 66.5 µM | GI50 [6]: 35.1 µM (inactive) | GI50 [7]: 44.3 µM (inactive) | GI50 [8]: > 100 µM (inactive) | GI50 [9]: 68.7 µM (inactive) | GI50 [10]: 20 µM (inactive) | GI50 [11]: 45.6 µM (inactive) | GI50 [12]: > 100 µM (inactive) | GI50 [13]: 29.6 µM (inactive) | GI50 [14]: 54.3 µM (inactive) | GI50 [15]: > 100 µM (inactive) | GI50 [16]: 40.7 µM (inactive) | GI50 [17]: > 100 µM (inactive) | GI50 [18]: 23.4 µM (inactive) | GI50 [19]: 47.3 µM (inactive) | GI50 [20]: 30.6 µM (inactive)

Cc1nc(N)nc2ccccc12
GI50 [1]: > 100 µM (inactive) | GI50 [2]: > 100 µM (inactive) | GI50 [3]: > 100 µM (inactive) | GI50 [4]: > 100 µM (inactive) | GI50 [5]: > 100 µM | GI50 [6]: > 100 µM (inactive) | GI50 [7]: > 100 µM (inactive) | GI50 [8]: > 100 µM (inactive) | GI50 [9]: > 100 µM (inactive) | GI50 [10]: > 100 µM (inactive) | GI50 [11]: > 100 µM (inactive) | GI50 [12]: > 100 µM (inactive) | GI50 [13]: > 100 µM (inactive) | GI50 [14]: > 100 µM (inactive) | GI50 [15]: > 100 µM (inactive) | GI50 [16]: > 100 µM (inactive) | GI50 [17]: > 100 µM (inactive) | GI50 [18]: > 100 µM (inactive) | GI50 [19]: > 100 µM (inactive) | GI50 [20]: > 100 µM (inactive)

O=C1/C(=C/c2ccc(Cl)c(Cl)c2)CNC/C1=C\c1ccc(Cl)c(Cl)c1
GI50 [1]: 20.9 µM (inactive) | GI50 [2]: 11 µM (inactive) | GI50 [3]: 4.09 µM (inactive) | GI50 [4]: 14.5 µM (inactive) | GI50 [5]: 2.94 µM | GI50 [6]: 5.08 µM (inactive) | GI50 [7]: 14 µM (inactive) | GI50 [8]: 40.7 µM (inactive) | GI50 [9]: 14.8 µM (inactive) | GI50 [10]: 5.07 µM (inactive) | GI50 [11]: 9.2 µM (inactive) | GI50 [12]: 3.21 µM (inactive) | GI50 [13]: 3.96 µM (inactive) | GI50 [14]: 2.39 µM (inactive) | GI50 [15]: 3.92 µM (inactive) | GI50 [16]: 2.57 µM (inactive) | GI50 [17]: 18.3 µM (inactive) | GI50 [18]: 2.29 µM (inactive) | GI50 [19]: 5.11 µM (inactive) | GI50 [20]: 3.89 µM (inactive)

Nc1ncnc2nn(C3OC(CO)C(O)C3O)nc12 (stereo not given)
GI50 [1]: 9.1 µM (inactive) | GI50 [2]: 6.82 µM (inactive) | GI50 [3]: 8.55 µM (inactive) | GI50 [4]: 14 µM (inactive) | GI50 [5]: 5.62 µM | GI50 [6]: 8.02 µM (inactive) | GI50 [7]: 25.4 µM (inactive) | GI50 [8]: 2.67 µM (inactive) | GI50 [9]: 9.16 µM (inactive) | GI50 [10]: 6.32 µM (inactive) | GI50 [11]: 22 µM (inactive) | GI50 [12]: 31.5 µM (inactive) | GI50 [13]: 2.99 µM (inactive) | GI50 [14]: 10.4 µM (inactive) | GI50 [15]: 8.11 µM (inactive) | GI50 [16]: 7.87 µM (inactive) | GI50 [17]: 10.2 µM (inactive) | GI50 [18]: 21.1 µM (inactive) | GI50 [19]: 23.1 µM (inactive) | GI50 [20]: 7.57 µM (inactive)

[N-]=[N+]=NC1C(O)C(CO)OC1n1ccc(=O)[nH]c1=O (stereo not given)
GI50 [1]: > 875 µM (inactive) | GI50 [2]: > 875 µM (inactive) | GI50 [3]: > 875 µM (inactive) | GI50 [4]: > 875 µM (inactive) | GI50 [5]: > 875 µM | GI50 [6]: > 875 µM (inactive) | GI50 [7]: > 875 µM (inactive) | GI50 [8]: > 875 µM (inactive) | GI50 [9]: > 875 µM (inactive) | GI50 [10]: > 875 µM (inactive) | GI50 [11]: > 875 µM (inactive) | GI50 [12]: > 875 µM (inactive) | GI50 [13]: > 875 µM (inactive) | GI50 [14]: > 875 µM (inactive) | GI50 [15]: > 875 µM (inactive) | GI50 [16]: > 875 µM (inactive) | GI50 [17]: > 875 µM (inactive) | GI50 [18]: > 875 µM (inactive) | GI50 [19]: > 875 µM (inactive) | GI50 [20]: > 875 µM (inactive)

CCC1OC(=O)CC(O)C(C)C(OC2OC(C)C(O)C(N(C)C)C2O)C(CC=O)CC(C)C(=O)/C=C/C2(C)OC2C1C (stereo not given)
GI50 [1]: 27.7 µM (inactive) | GI50 [2]: 18.5 µM (inactive) | GI50 [3]: 23.1 µM (inactive) | GI50 [4]: 33.4 µM (inactive) | GI50 [5]: 32.1 µM | GI50 [6]: 15.1 µM (inactive) | GI50 [7]: 19.8 µM (inactive) | GI50 [8]: 58.7 µM (inactive) | GI50 [9]: 33.8 µM (inactive) | GI50 [10]: 16.8 µM (inactive) | GI50 [11]: 67.9 µM (inactive) | GI50 [12]: 27.1 µM (inactive) | GI50 [13]: 13.5 µM (inactive) | GI50 [14]: 24.1 µM (inactive) | GI50 [15]: 3.19 µM (inactive) | GI50 [16]: 17.9 µM (inactive) | GI50 [17]: 36.9 µM (inactive) | GI50 [18]: 17.2 µM (inactive) | GI50 [19]: 30.2 µM (inactive) | GI50 [20]: 23.3 µM (inactive)

COC1=CC(=O)O/C1=C(\OC)C1OC1c1ccccc1 (stereo not given)
GI50 [1]: > 100 µM (inactive) | GI50 [2]: > 100 µM (inactive) | GI50 [3]: > 100 µM (inactive) | GI50 [4]: > 100 µM (inactive) | GI50 [5]: > 100 µM | GI50 [6]: > 100 µM (inactive) | GI50 [7]: > 100 µM (inactive) | GI50 [8]: > 100 µM (inactive) | GI50 [9]: > 100 µM (inactive) | GI50 [10]: > 100 µM (inactive) | GI50 [11]: > 100 µM (inactive) | GI50 [12]: > 100 µM (inactive) | GI50 [13]: 13 µM (inactive) | GI50 [14]: > 100 µM (inactive) | GI50 [15]: > 100 µM (inactive) | GI50 [16]: > 100 µM (inactive) | GI50 [17]: > 100 µM (inactive) | GI50 [18]: 35.2 µM (inactive) | GI50 [19]: > 100 µM (inactive) | GI50 [20]: > 100 µM (inactive)

COc1ccc2nc3cc(Cl)ccc3c(NCCNCCCNC(=O)c3cc(-c4ccccc4)nc4ccccc34)c2c1
GI50 [1]: 30.1 µM (inactive) | GI50 [2]: > 100 µM (inactive) | GI50 [3]: > 100 µM (inactive) | GI50 [4]: > 100 µM (inactive) | GI50 [5]: > 100 µM | GI50 [6]: > 100 µM (inactive) | GI50 [7]: > 100 µM (inactive) | GI50 [8]: > 100 µM (inactive) | GI50 [9]: > 100 µM (inactive) | GI50 [10]: 82.6 µM (inactive) | GI50 [11]: > 100 µM (inactive) | GI50 [12]: > 100 µM (inactive) | GI50 [13]: 38.3 µM (inactive) | GI50 [14]: > 100 µM (inactive) | GI50 [15]: > 100 µM (inactive) | GI50 [16]: > 100 µM (inactive) | GI50 [17]: > 100 µM (inactive) | GI50 [18]: > 100 µM (inactive) | GI50 [19]: > 100 µM (inactive) | GI50 [20]: 54.7 µM (inactive)

COc1ccc2c(c1)CCC(CN1CCN(CCOC(c3ccc(F)cc3)c3ccc(F)cc3)CC1)C2O (stereo not given)
GI50 [1]: 16 µM (inactive) | GI50 [2]: 14.8 µM (inactive) | GI50 [3]: 15.8 µM (inactive) | GI50 [4]: 16.1 µM (inactive) | GI50 [5]: 10.4 µM | GI50 [6]: 17.3 µM (inactive) | GI50 [7]: 11.5 µM (inactive) | GI50 [8]: 15.5 µM (inactive) | GI50 [9]: 16.3 µM (inactive) | GI50 [10]: 15.3 µM (inactive) | GI50 [11]: 17.9 µM (inactive) | GI50 [12]: 15.4 µM (inactive) | GI50 [13]: 6.28 µM (inactive) | GI50 [14]: 11.7 µM (inactive) | GI50 [15]: 13.8 µM (inactive) | GI50 [16]: 11.1 µM (inactive) | GI50 [17]: 3.93 µM (inactive) | GI50 [18]: 14.9 µM (inactive) | GI50 [19]: 13.3 µM (inactive) | GI50 [20]: 14.9 µM (inactive)

COC(=O)[C@@]12C(=O)C=CC(=O)[C@@H]1C1C(=CC2COC(C)=O)O[C@@H]2OC3(CCCCC3)O[C@H]12 (stereo not given in full)
GI50 [1]: 16.2 µM (inactive) | GI50 [2]: 2.21 µM (inactive) | GI50 [3]: 12.6 µM (inactive) | GI50 [4]: 19.8 µM (inactive) | GI50 [5]: 5.66 µM | GI50 [6]: 15.5 µM (inactive) | GI50 [7]: 12.9 µM (inactive) | GI50 [8]: 16.1 µM (inactive) | GI50 [9]: 14.5 µM (inactive) | GI50 [10]: 9.95 µM (inactive) | GI50 [11]: 16.1 µM (inactive) | GI50 [12]: 9.46 µM (inactive) | GI50 [13]: 3.05 µM (inactive) | GI50 [14]: 7.1 µM (inactive) | GI50 [15]: 7.94 µM (inactive) | GI50 [16]: 5.69 µM (inactive) | GI50 [17]: 22.8 µM (inactive) | GI50 [18]: 8.13 µM (inactive) | GI50 [19]: 15.6 µM (inactive) | GI50 [20]: 6.37 µM (inactive)
